Active and inactive are the calls of the source.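 The calls were made as follows: active = fitted half-maximal concentration for a cytotoxic signal drop no higher than ten times the top valid dose tested; inconclusive = flat curve between -70 and -30 percent, or an unreliable fit; inactive = flat within 30 percent, signal rise, or potency beyond limit.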
Assay: viability loss in HeLa cells – cell-based, 24 h, cherry-picked samples, cytotoxicity control, dose response (AID 504726);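 also: 0% = DMSO neutral controls and -100% = mitoxantrone positive controls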
Details: HeLa viability, CellTiter-Glo ATP luminescence, 24 h; at 35 µM (top of the series)

| SMILES | activity change, negative = cytotoxicity |
| --- | --- |
| O=C(CCn1c(=S)oc2ccccc21)N1CCN(c2ccc(F)cc2)CC1 | 2.32% (inactive) |
| CC(OC(=O)c1cn(C)c2ccccc12)C(=O)N1CCCC1 (configuration not stated) | -9.43% (inactive) |
| CC1=NCCc2c1[nH]c1cc(O)ccc21 | -12.7% (inactive) |
| CCN(CC)C(=O)c1ccc2c(c1)C1C=CCC1C(C(=O)O)N2 (configuration not stated) | -7.76% (inactive) |
| Cc1oc2cc(O)ccc2c(=O)c1-c1nncn1-c1ccccc1 | 3.87% (inactive) |
| C=CCn1c(C)cc(-c2csc(NC(=O)CCc3nc4ccccc4c(=O)[nH]3)n2)c1C | -6.5% (inactive) |
| Cc1ccc(C)c(OCC(=O)N(Cc2nnc(-c3ccccc3Cl)o2)C2CC2)c1 | -0.736% (inactive) |
| COC(=O)c1sc(C(F)(F)F)c(-c2ccccc2)c1S(=O)(=O)N1CCOCC1 | -14.2% (inactive) |
| COc1cccc2c1NC(C(=O)O)C1CC=CC21 (configuration not stated) | -12.8% (inactive) |
| CC(C)C(C(=O)O)N1C(=O)/C(=C/C=C/c2ccco2)SC1=S (configuration not stated) | -14.8% (inactive) |
| CN(C)/C=N/c1nc2nccc(-c3ccc(Cl)cc3)n2n1 | -3.67% (inactive) |
| Cc1cc(C)nc(SCC(=O)N/N=C/c2cc(C)n(-c3ccccc3C)c2C)n1 | -7.55% (inactive) |
| CC(=O)O[C@@H]1[C@@H](OC(C)=O)[C@H](n2ccc3cc([N+](=O)[O-])ccc32)OC[C@@H]1OC(C)=O | -3.68% (inactive) |
| CCCCn1nc(CC(=O)O)c2ccccc2c1=O | -0.208% (inactive) |
| O=C(c1cccc(S(=O)(=O)NCc2ccccc2)c1)N1CCN(c2ccccc2Cl)CC1 | 0.089% (inactive) |
| O=c1[nH]nc(CSCc2ccccc2Cl)[nH]1 | -3.66% (inactive) |
| Cc1ccccc1NC(=O)CN1C(=O)N/C(=C\c2cccn2-c2cccc(C(=O)O)c2)C1=O | -8.21% (inactive) |
| COc1cc(SC)ccc1C(=O)OCC(=O)N1CCN(C(C)=O)CC1 | 11.9% (inactive) |
| COc1ccc(S(=O)(=O)N2CCC(C(=O)N3CCCCC3)CC2)cc1 | -17.6% (inactive) |
| CCCCn1c(=O)[nH]c2nc3cc(N)ccc3nc2c1=O | -9.99% (inactive) |
| Nc1ccc2ccc3cccc[n+]3c2c1 | -15.1% (inactive) |
| CCC1(c2ccccc2)NC(=O)N(CC(=O)Nc2ccc(OC)nc2)C1=O (configuration not stated) | -1.91% (inactive) |

| SMILES | activity change, negative = cytotoxicity |
| --- | --- |
| C=CCNC(=S)N1CCN(S(=O)(=O)c2ccc(C)cc2)CC1 | -6.85% (inactive) |
| Cc1ccc2c(c1)nnn2C1CCN(C(=O)c2cccs2)CC1 | -7.39% (inactive) |
| CC(C)CC(=O)Nc1nnc(CSCc2ccc(F)cc2)s1 | -9.25% (inactive) |
| Cc1c(C)n(Cc2ccccc2)c2ncnc(Cl)c12 | -17.6% (inactive) |
| O=C1/C(=C/c2ccco2)Oc2c1ccc(O)c2CN1CCCCC1 | 4.96% (inactive) |
| C=C(C)C(=O)Nc1cccc(C2=NOC3(C2)C[C@@H](C(N)=O)N(C(=O)C2(C)CC2)C3)c1 (some centres not stated) | 1.25% (inactive) |
| O=C(Nc1ccc2c(c1)OCO2)N1CCCc2ccccc21 | -15.9% (inactive) |
| Cc1ccccc1NC(=S)NC(C)CCc1ccccc1 (configuration not stated) | -9.6% (inactive) |
| CC(OC(=O)CCN1C(=O)C2CC=CCC2C1=O)C(=O)Nc1ccc(F)cc1 (configuration not stated) | -6.8% (inactive) |
| Cc1cnc(NC(=O)Cc2c[nH]c3ccccc23)s1 | -3.77% (inactive) |
| CCOc1ccc(/C=C2\CCCc3c2nc2ccccc2c3C(=O)O)cc1OC | -5% (inactive) |
| Cc1cc(C)n(CC(=O)NNC(=O)CC(C)c2ccccc2)n1 (configuration not stated) | -9.44% (inactive) |
| CC(=O)OCCn1c2nc(=O)[nH]c(=O)c-2nc2cc(C)c(C)cc21 | -8.08% (inactive) |
| COc1ccc(NC(=O)NS(=O)(=O)c2ccc(C)cc2)cn1 | -5.07% (inactive) |
| Cc1ccc(S(=O)(=O)/N=C/c2ccc(N(C)C)cc2)cc1 | 2.12% (inactive) |
| CCC(Sc1ncccc1C(=O)O)C(=O)N1CCCC1 (configuration not stated) | 3.53% (inactive) |
| Nc1cccc2c(O)cc(S(=O)(=O)O)cc12 | -1.83% (inactive) |
| CCc1noc(C)c1C(=O)NCCc1c[nH]c2ccccc12 | -12.2% (inactive) |
| COc1ccc(NS(=O)(=O)c2ccc3c(c2)[C@H]2C=CC[C@H]2[C@@H](c2ccc(C(=O)O)cc2)N3)cc1 | -3.11% (inactive) |
| CC1=NN(c2cccc(C(=O)O)c2)C(=O)/C1=C\C=C\c1ccco1 | -5.55% (inactive) |
| COc1cccc(OC)c1C(=O)Nc1cc(C)on1 | 0.727% (inactive) |
| CCOc1ccccc1N1CCN(C(=O)c2ccc3nc(N)sc3c2)CC1 | -19.1% (inactive) |

| SMILES | activity change, negative = cytotoxicity |
| --- | --- |
| COC(=O)c1ccccc1NC(=O)CCS(=O)(=O)c1ccc(Br)cc1 | 10.1% (inactive) |
| Cc1[nH][nH]c(=O)c1C(c1ccc(-c2ccc(Cl)c(C(=O)O)c2)o1)c1c(C)[nH][nH]c1=O | -3.88% (inactive) |
| O=C(Cn1ncc(N2CCCC2)c(Cl)c1=O)c1ccc(Cl)cc1 | 7.35% (inactive) |
| Cc1ccc(N(CC(=O)N2CCOCC2)S(C)(=O)=O)cc1 | -3.08% (inactive) |
| Nc1nc(-c2ccc(C(=O)O)cc2)cs1 | -2% (inactive) |
| O=C(CCNc1ccc(Cc2ccncc2)cc1)c1cccc([N+](=O)[O-])c1 | -10% (inactive) |
| Cc1nnc(NC(=O)CN2C(=O)NC3(CCCC3)C2=O)s1 | -0.18% (inactive) |
| CCCc1nnc(NC(=O)CCC(=O)NCc2ccc(OC)cc2)s1 | -1.54% (inactive) |
| COc1ccccc1N1CCN(S(=O)(=O)c2c(C)[nH]c(C)c2C(=O)N2CCCC2)CC1 | 3.8% (inactive) |
| Cc1noc(C)c1-c1nc(CSc2ccccc2)no1 | -16.7% (inactive) |
| Cc1c(NC(=O)CCC2CCCCC2)cc(C(=O)N2CCOCC2)cc1[N+](=O)[O-] | 0.409% (inactive) |
| CCc1noc(C)c1C(=O)N1CCCC(N2CCN(c3ccc(F)cc3)CC2)C1 (configuration not stated) | -1.12% (inactive) |
| Cc1ccc(OCC(=O)NC(=S)Nc2cccc(NC(=O)c3ccc(Cl)cc3Cl)c2)cc1 | -4.71% (inactive) |
| CC(=O)Nc1ccc(S(=O)(=O)Nc2ccccc2N2CCOCC2)cc1 | 1.3% (inactive) |
| NC(=O)C1(N2CCCCC2)CCN(Cc2ccc(Br)cc2)CC1 | -2.98% (inactive) |
| CC(C)c1ccc(CNc2ccc([N+](=O)[O-])cn2)cc1 | -10.7% (inactive) |
| O=C(O)CC(C(=O)O)N1C(=O)/C(=C/C=C/c2ccco2)SC1=S (configuration not stated) | -8.39% (inactive) |
| Cn1c(=O)oc2cc(S(=O)(=O)CCC(=O)N3CCN(c4ccccc4F)CC3)ccc21 | -1.08% (inactive) |
| O=C(/C=N/NC(=O)c1ccc(Cl)cc1Cl)c1ccccc1 | 1.59% (inactive) |
| COc1ccc(C2(CNC(=O)CCC(=O)O)CCCC2)cc1OC | -16% (inactive) |
| CCn1c(CN2CCCCC2)nc2cc(S(=O)(=O)N3CCCCC3)ccc21 | -13.7% (inactive) |
| CCOC(=O)[C@H]1[C@H]2COc3cc(OC)ccc3[C@@H]2N2C(=O)CN(Cc3ccc(OC)cc3)C(=O)[C@@]12C | -9.01% (inactive) |

| SMILES | activity change, negative = cytotoxicity |
| --- | --- |
| O=C(O)CC1(CC(=O)NCc2ccncc2)CCCCC1 | -9.28% (inactive) |
| CCN(C(=O)c1cccc(S(=O)(=O)N2CCc3ccccc32)c1)C1CCS(=O)(=O)C1 (configuration not stated) | -1.74% (inactive) |
| Cn1c(=O)c(NCCO)c2c3c(cccc31)C(=O)c1ccccc1-2 | -6.61% (inactive) |
| Cc1cc(C)n(CCC(=O)N/N=C/c2ccc(O)cc2O)n1 | -6.35% (inactive) |
| O=S(=O)(O)c1cccc2cccc(Nc3ccccc3)c12 | -4.31% (inactive) |
| CCOc1ccc2noc3c2c1C(=O)c1ccccc1-3 | -3.75% (inactive) |
| CC(C)CN(C(=O)CSc1nncn1C)C1CCS(=O)(=O)C1 (configuration not stated) | 4.85% (inactive) |
| CC(C)=C1C2C=CC1C(C(=O)Nc1cc(C)ccc1C)C2C(=O)O (configuration not stated) | -4.56% (inactive) |
| Cc1nc2ccccc2n2c(O)c(CC(=O)O)cc12 | -13.5% (inactive) |
| O=c1c2cc(O)c(O)cc2oc2cc(O)c(C3OC(CO)C(O)C(O)C3O)c(O)c12 (configuration not stated) | 3.92% (inactive) |
| COc1ccc(C(C)=O)cc1CN(C)C | 9% (inactive) |
| O=C(O)COc1ccc2c(c1)O/C(=C\c1ccco1)C2=O | -1.96% (inactive) |
| CC(C)(CS(=O)(=O)[O-])NC(=O)CC[N+](C)(C)CCO | 2.35% (inactive) |
| Oc1ccc2nnc3c(Br)cnn3c2c1 | -12.1% (inactive) |
| CC(C)c1ccc(NC(=O)Cn2c(=O)oc3cccnc32)cc1 | -7.38% (inactive) |
| O=C(O)c1cccc(NC2=Nc3cccc4cccc2c34)c1 | -4.32% (inactive) |
| Cc1cc(OCC(=O)OC(C)(C)C)c2c3c(c(=O)oc2c1)CCC3 | 0.477% (inactive) |
| COc1ccc(-c2csc(NC(=O)CSc3nc(C)nc4sc(C(=O)O)c(C)c34)n2)cc1 | -1.52% (inactive) |
| O=S(=O)(NCc1cccnc1)c1ccc(Cl)s1 | 4.67% (inactive) |
| O=c1cc(-c2ccc(O)c(O)c2)oc2cc(O[C@@H]3O[C@H](CO)[C@@H](O)[C@H](O)[C@H]3O)cc(O)c12 | -8.55% (inactive) |
| CCCc1cc(C(=O)Nc2ccc(C(=O)c3ccc(C)cc3)cc2)n(C)n1 | 2.14% (inactive) |
